ChEMBL document CHEMBL1201861, “Genomics of Drug Sensitity in Cancer screening data, Wellcome Trust Sanger Institute”

Columns and labels:
Experiment in all cases: cells
DJM-1 = type: functional, cell-based, Homo sapiens; conditions: Homo sapiens, DJM-1;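 note: growth inhibition of human DJM-1 cells, read out by a cell viability assay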
Description: SANGER: Inhibition of human DJM-1 cell growth in a cell viability assay.

HO-1-N-1 = type: functional, cell-based, Homo sapiens; conditions: Homo sapiens, HO-1-N-1;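 note: growth inhibition of human HO-1-N-1 cells, read out with a cell viability assay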
Description: SANGER: Inhibition of human HO-1-N-1 cell growth in a cell viability assay.

MV4-11 = type: functional, cell-based, MV-4-11; conditions: Homo sapiens;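 note: cell viability readout measuring growth inhibition of human MV-4-11 cells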
Description: SANGER: Inhibition of human MV-4-11 cell growth in a cell viability assay.

BB49-HNC = type: functional, cell-based, Homo sapiens; conditions: Homo sapiens, BB49-HNC;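 note: cell viability assay read-out, reported as inhibition of BB49-HNC cell growth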
Description: SANGER: Inhibition of human BB49-HNC cell growth in a cell viability assay.

NCI-H747 = type: functional, cell-based; conditions: Homo sapiens;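 note: growth inhibition of human NCI-H747 cells, read out by a cell viability assay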
Description: SANGER: Inhibition of human NCI-H747 cell growth in a cell viability assay.

HuCCT-1 = type: functional, cell-based, Homo sapiens, HuCCT1; conditions: Homo sapiens, HuCCT-1;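 note: growth inhibition of HuCCT-1 cells, read out by a cell viability assay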
Description: SANGER: Inhibition of human HuCCT1 cell growth in a cell viability assay.

SK-N-DZ = type: functional, cell-based, Homo sapiens; conditions: Homo sapiens, SK-N-DZ;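 note: growth inhibition of the cancer cell line, read out through a viability assay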
Description: SANGER: Inhibition of human SK-N-DZ cell growth in a cell viability assay.

MIA PaCa-2 = type: functional, cell-based, Homo sapiens; conditions: Homo sapiens, MIA PaCa-2;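 note: growth inhibition of MIA PaCa-2 cells, read out with a cell viability assay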
Description: SANGER: Inhibition of human MIA-PaCa-2 cell growth in a cell viability assay.

BB30-HNC = type: functional, cell-based, Homo sapiens; conditions: Homo sapiens, BB30-HNC;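 note: growth inhibition of the cultured cell line, read out by a cell viability assay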
Description: SANGER: Inhibition of human BB30-HNC cell growth in a cell viability assay.

KS-1 = type: functional, cell-based, Homo sapiens; conditions: Homo sapiens, KS-1;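 note: growth inhibition of KS-1 cells, read out with a cell viability assay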
Description: SANGER: Inhibition of human KS-1 cell growth in a cell viability assay.

LB373-MEL-D = type: functional, cell-based, Homo sapiens; conditions: Homo sapiens, LB373-MEL-D;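 note: growth inhibition of the cell line, read out in a cell viability assay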
Description: SANGER: Inhibition of human LB373-MEL-D cell growth in a cell viability assay.

LNCaP-Clone-FGC = type: functional, cell-based, Homo sapiens; conditions: Homo sapiens, LNCaP-Clone-FGC
Description: SANGER: Inhibition of human LNCaP-Clone-FGC cell growth in a cell viability assay.

NEC8 = type: functional, cell-based, Homo sapiens; conditions: Homo sapiens, NEC8;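 note: growth inhibition of human NEC8 cells, read out by a cell viability assay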
Description: SANGER: Inhibition of human NEC8 cell growth in a cell viability assay.

SW1783 = type: functional, cell-based; conditions: Homo sapiens;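 note: cell growth inhibition measured with a viability assay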
Description: SANGER: Inhibition of human SW1783 cell growth in a cell viability assay.

DK-MG = type: functional, cell-based, Homo sapiens; conditions: Homo sapiens, DK-MG;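 note: growth inhibition of DK-MG cells, read out with a cell viability assay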
Description: SANGER: Inhibition of human DK-MG cell growth in a cell viability assay.

EW-18 = type: functional, cell-based; conditions: Homo sapiens;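 note: growth inhibition of EW-18 cells, read out by a cell viability assay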
Description: SANGER: Inhibition of human EW-18 cell growth in a cell viability assay.

MKN-45 = type: functional, cell-based, Homo sapiens; conditions: Homo sapiens, MKN-45;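 note: growth inhibition of human MKN-45 cells, measured with a cell viability assay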
Description: SANGER: Inhibition of human MKN45 cell growth in a cell viability assay.

786-0 = type: functional, cell-based, Homo sapiens; conditions: Homo sapiens
Description: SANGER: Inhibition of human 786-0 cell growth in a cell viability assay.

MEG-01 = type: functional, cell-based; conditions: Homo sapiens;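 note: growth inhibition of MEG-01 cells, read out by a cell viability assay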
Description: SANGER: Inhibition of human MEG-01 cell growth in a cell viability assay.

ES8 = type: functional, cell-based, Homo sapiens; conditions: Homo sapiens, ES8;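 note: growth inhibition of human ES8 cells, read out with a cell viability assay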
Description: SANGER: Inhibition of human ES8 cell growth in a cell viability assay.

U-266 = type: functional, cell-based; conditions: Homo sapiens
Description: SANGER: Inhibition of human U-266 cell growth in a cell viability assay.

EC-GI-10 = type: functional, cell-based, Homo sapiens; conditions: Homo sapiens, EC-GI-10
Description: SANGER: Inhibition of human EC-GI-10 cell growth in a cell viability assay.

COLO-800 = type: functional, cell-based, Homo sapiens; conditions: Homo sapiens, COLO-800;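 note: growth inhibition of COLO-800 cells, read out with a cell viability assay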
Description: SANGER: Inhibition of human COLO-800 cell growth in a cell viability assay.

EFM-19 = type: functional, cell-based, Homo sapiens; conditions: Homo sapiens, EFM-19;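 note: growth inhibition of human EFM-19 cells, measured in a cell viability assay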
Description: SANGER: Inhibition of human EFM-19 cell growth in a cell viability assay.

697 = type: functional, cell-based; conditions: Homo sapiens
Description: SANGER: Inhibition of human 697 cell growth in a cell viability assay.

A673 = type: functional, cell-based, Homo sapiens; conditions: Homo sapiens, A673;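 note: growth inhibition of human A673 cells, read out through a cell viability assay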
Description: SANGER: Inhibition of human A673 cell growth in a cell viability assay.

YAPC = type: functional, cell-based, Homo sapiens; conditions: Homo sapiens, YAPC;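 note: growth inhibition of YAPC cells, measured with a cell viability assay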
Description: SANGER: Inhibition of human YAPC cell growth in a cell viability assay.

NY = type: functional, cell-based, Homo sapiens; conditions: Homo sapiens, NY
Description: SANGER: Inhibition of human NY cell growth in a cell viability assay.

SW780 = type: functional, cell-based, Homo sapiens; conditions: Homo sapiens, SW780;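 note: growth inhibition of the cells, read out with a cell viability assay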
Description: SANGER: Inhibition of human SW780 cell growth in a cell viability assay.

D283 Med = type: functional, cell-based, Homo sapiens; conditions: Homo sapiens, D283 Med
Description: SANGER: Inhibition of human D-283MED cell growth in a cell viability assay.

SW982 = type: functional, cell-based; conditions: Homo sapiens;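 note: growth inhibition of SW982 cells, read out with a cell viability assay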
Description: SANGER: Inhibition of human SW982 cell growth in a cell viability assay.

LCLC-97TM1 = type: functional, cell-based, Homo sapiens; conditions: Homo sapiens, LCLC-97TM1;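 note: cell viability assay measuring growth inhibition of human LCLC-97TM1 cells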
Description: SANGER: Inhibition of human LCLC-97TM1 cell growth in a cell viability assay.

KYSE-520 cell line = type: functional, cell-based, Homo sapiens; conditions: Homo sapiens, KYSE-520;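 note: growth inhibition of human KYSE-520 cells, read out with a viability assay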
Description: SANGER: Inhibition of human KYSE-520 cell growth in a cell viability assay.

HSC-3 = type: functional, cell-based, Homo sapiens; conditions: Homo sapiens, HSC-3
Description: SANGER: Inhibition of human HSC-3 cell growth in a cell viability assay.

TE-12 = type: functional, cell-based; conditions: Homo sapiens;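 note: growth inhibition of TE-12 cells, read out by a cell viability assay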
Description: SANGER: Inhibition of human TE-12 cell growth in a cell viability assay.

MKN-28 = type: functional, cell-based, Homo sapiens; conditions: Homo sapiens, MKN-28;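 note: cell viability assay read-out, IC50 reflects suppression of growth of human MKN-28 cells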
Description: SANGER: Inhibition of human MKN28 cell growth in a cell viability assay.

MCF7 = type: functional, cell-based, Homo sapiens; conditions: Homo sapiens, MCF7;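 note: growth inhibition of human MCF7 cells, read out with a cell viability assay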
Description: SANGER: Inhibition of human MCF7 cell growth in a cell viability assay.

OE19 = type: functional, cell-based, Homo sapiens; conditions: Homo sapiens, OE19;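 note: growth inhibition of OE19 cells, measured through a cell viability read-out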
Description: SANGER: Inhibition of human OE19 cell growth in a cell viability assay.

PSN1 = type: functional, cell-based, Homo sapiens; conditions: Homo sapiens, PSN1;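 note: suppression of growth of human PSN1 cells, read out by a cell viability assay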
Description: SANGER: Inhibition of human PSN1 cell growth in a cell viability assay.

UMC-11 = type: functional, cell-based, Homo sapiens; conditions: Homo sapiens, UMC-11;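 note: growth inhibition of UMC-11 cells, read out with a cell viability assay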
Description: SANGER: Inhibition of human UMC-11 cell growth in a cell viability assay.

D-247MG = type: functional, cell-based, Homo sapiens; conditions: Homo sapiens, D-247MG
Description: SANGER: Inhibition of human D-247MG cell growth in a cell viability assay.

SCC-25 = type: functional, cell-based, Homo sapiens; conditions: Homo sapiens, SCC-25;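 note: growth inhibition of SCC-25 cells, measured with a cell viability assay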
Description: SANGER: Inhibition of human SCC-25 cell growth in a cell viability assay.

J-RT3-T3-5 = type: functional, cell-based; conditions: Homo sapiens;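 note: cell viability assay measuring growth inhibition of human J-RT3-T3-5 cells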
Description: SANGER: Inhibition of human J-RT3-T3-5 cell growth in a cell viability assay.

NCI-H2342 = type: functional, cell-based; conditions: Homo sapiens;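 note: growth inhibition of the cancer cell line, determined with a cell viability assay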
Description: SANGER: Inhibition of human NCI-H2342 cell growth in a cell viability assay.

PANC-03-27 = type: functional, cell-based, Homo sapiens; conditions: Homo sapiens, PANC-03-27
Description: SANGER: Inhibition of human PANC-03-27 cell growth in a cell viability assay.

KM12 = type: functional, cell-based, Homo sapiens; conditions: Homo sapiens, KM12;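 note: KM12 cell growth inhibition, read out with a cell viability assay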
Description: SANGER: Inhibition of human KM12 cell growth in a cell viability assay.

KP-4 = type: functional, cell-based, Homo sapiens; conditions: Homo sapiens, KP-4; read-out: IC50;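 note: human KP-4 cells, with growth inhibition read out through a cell viability assay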
Description: SANGER: Inhibition of human KP-4 cell growth in a cell viability assay.

BT-20 = type: functional, cell-based, Homo sapiens; conditions: Homo sapiens, BT-20;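 note: cell viability assay measuring suppression of growth in human BT-20 cells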
Description: SANGER: Inhibition of human BT-20 cell growth in a cell viability assay.

Daoy = type: functional, cell-based, Homo sapiens; conditions: Homo sapiens, Daoy;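 note: daoy cell growth inhibition, read out as cell viability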
Description: SANGER: Inhibition of human Daoy cell growth in a cell viability assay.

T84 = type: functional, cell-based, Homo sapiens; conditions: Homo sapiens, T84;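 note: growth inhibition measured with a cell viability readout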
Description: SANGER: Inhibition of human T84 cell growth in a cell viability assay.

NCI-H727 = type: functional, cell-based, Homo sapiens; conditions: Homo sapiens, NCI-H727;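 note: growth inhibition of human NCI-H727 cells, read out with a cell viability assay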
Description: SANGER: Inhibition of human NCI-H727 cell growth in a cell viability assay.

In the case of `COC(=O)CNC(=O)C(=O)OC`, the IC50 (DJM-1) is reported as 215 µM, the IC50 (HO-1-N-1) is reported as 1070 µM and the IC50 (MV4-11) is reported as 276 µM. For the same compound, the IC50 (BB49-HNC) was 611 µM, the IC50 (NCI-H747) was greater than 4000 µM and the IC50 (HuCCT-1) was 211 µM. For the same compound, the IC50 (SK-N-DZ) was 3090 µM, the IC50 (MIA PaCa-2) was 139 µM and the IC50 (BB30-HNC) was 148 µM. It also gave an IC50 (KS-1) of 11.3 µM, an IC50 (LB373-MEL-D) of 710 µM and an IC50 (LNCaP-Clone-FGC) of 3210 µM. For the same compound, the IC50 (NEC8) was 406 µM, the IC50 (SW1783) was 156 µM and the IC50 (DK-MG) was 526 µM. The IC50 (EW-18) was 1510 µM, the IC50 (MKN-45) was greater than 4000 µM and the IC50 (786-0) was greater than 4000 µM. It also gave an IC50 (MEG-01) of 484 µM, an IC50 (ES8) of 673 µM and an IC50 (U-266) greater than 4000 µM. For the same compound, the IC50 (EC-GI-10) was greater than 4000 µM, the IC50 (COLO-800) was greater than 4000 µM and the IC50 (EFM-19) was 1080 µM. It also gave an IC50 697 of 229 µM, an IC50 (A673) of 526 µM and an IC50 (YAPC) greater than 4000 µM. The IC50 (NY) was 725 µM, the IC50 (SW780) was 133 µM and the IC50 (D283 Med) was 521 µM. For the same compound, the IC50 (SW982) was 33.7 µM, the IC50 (LCLC-97TM1) was 200 µM and the IC50 (KYSE-520 cell line) was 613 µM. It also gave an IC50 (HSC-3) of 618 µM, an IC50 (TE-12) of 182 µM and an IC50 (MKN-28) of 1120 µM. It also gave an IC50 (MCF7) greater than 4000 µM, an IC50 (OE19) greater than 4000 µM and an IC50 (PSN1) greater than 4000 µM. The IC50 (UMC-11) was 147 µM, the IC50 (D-247MG) was 2410 µM and the IC50 (SCC-25) was 1230 µM. The IC50 (J-RT3-T3-5) was 1740 µM, the IC50 (NCI-H2342) was 104 µM and the IC50 (PANC-03-27) was 672 µM. It also gave an IC50 (KM12) of 2240 µM, an IC50 (KP-4) of 1800 µM and an IC50 (BT-20) of 947 µM. The IC50 (Daoy) was 247 µM, the IC50 (T84) was greater than 4000 µM and the IC50 (NCI-H727) was greater than 4000 µM.

`CN(c1ncccc1CNc1nc(Nc2ccc3c(c2)CC(=O)N3)ncc1C(F)(F)F)S(C)(=O)=O` [PF-00562271] was tested, and the IC50 (DJM-1) was greater than 2.56 µM, the IC50 (HO-1-N-1) was greater than 2.56 µM and the IC50 (MV4-11) was 0.277 µM. It also gave an IC50 (BB49-HNC) greater than 2.56 µM, an IC50 (NCI-H747) greater than 2.56 µM and an IC50 (HuCCT-1) greater than 2.56 µM. It also gave an IC50 (SK-N-DZ) greater than 2.56 µM, an IC50 (MIA PaCa-2) greater than 2.56 µM and an IC50 (BB30-HNC) greater than 2.56 µM. For the same compound, the IC50 (KS-1) was greater than 2.56 µM, the IC50 (LB373-MEL-D) was greater than 2.56 µM and the IC50 (LNCaP-Clone-FGC) was greater than 2.56 µM. The IC50 (NEC8) was greater than 2.56 µM, the IC50 (SW1783) was greater than 2.56 µM and the IC50 (DK-MG) was greater than 2.56 µM. The IC50 (EW-18) was greater than 2.56 µM, the IC50 (MKN-45) was greater than 2.56 µM and the IC50 (786-0) was greater than 2.56 µM. For the same compound, the IC50 (MEG-01) was greater than 2.56 µM, the IC50 (ES8) was greater than 2.56 µM and the IC50 (U-266) was greater than 2.56 µM. It also gave an IC50 (EC-GI-10) greater than 2.56 µM, an IC50 (COLO-800) greater than 2.56 µM and an IC50 (EFM-19) greater than 2.56 µM. For the same compound, the IC50 697 was greater than 2.56 µM, the IC50 (A673) was greater than 2.56 µM and the IC50 (YAPC) was greater than 2.56 µM. For the same compound, the IC50 (NY) was greater than 2.56 µM, the IC50 (SW780) was greater than 2.56 µM and the IC50 (D283 Med) was greater than 2.56 µM. For the same compound, the IC50 (SW982) was 0.328 µM, the IC50 (LCLC-97TM1) was greater than 2.56 µM and the IC50 (KYSE-520 cell line) was greater than 2.56 µM. The IC50 (HSC-3) was greater than 2.56 µM, the IC50 (TE-12) was greater than 2.56 µM and the IC50 (MKN-28) was greater than 2.56 µM. It also gave an IC50 (MCF7) greater than 2.56 µM, an IC50 (OE19) greater than 2.56 µM and an IC50 (PSN1) greater than 2.56 µM. It also gave an IC50 (UMC-11) greater than 2.56 µM, an IC50 (D-247MG) greater than 2.56 µM and an IC50 (SCC-25) greater than 2.56 µM. For the same compound, the IC50 (J-RT3-T3-5) was greater than 2.56 µM, the IC50 (NCI-H2342) was greater than 2.56 µM and the IC50 (PANC-03-27) was greater than 2.56 µM. The IC50 (KM12) was 0.386 µM, the IC50 (KP-4) was greater than 2.56 µM and the IC50 (BT-20) was greater than 2.56 µM. For the same compound, the IC50 (Daoy) was greater than 2.56 µM, the IC50 (T84) was greater than 2.56 µM and the IC50 (NCI-H727) was greater than 2.56 µM.

`Cc1cnc(-c2cnc(NCCNc3ccc(C#N)cn3)nc2-c2ccc(Cl)cc2Cl)[nH]1` [LADUVIGLUSIB] showed an IC50 (DJM-1) greater than 2.56 µM, an IC50 (HO-1-N-1) greater than 2.56 µM and an IC50 (MV4-11) greater than 2.56 µM. The IC50 (BB49-HNC) was greater than 2.56 µM, the IC50 (NCI-H747) was greater than 2.56 µM and the IC50 (HuCCT-1) was greater than 2.56 µM. The IC50 (SK-N-DZ) was greater than 2.56 µM, the IC50 (MIA PaCa-2) was 1.76 µM and the IC50 (BB30-HNC) was greater than 2.56 µM. For the same compound, the IC50 (KS-1) was greater than 2.56 µM, the IC50 (LB373-MEL-D) was greater than 2.56 µM and the IC50 (LNCaP-Clone-FGC) was greater than 2.56 µM. It also gave an IC50 (NEC8) greater than 2.56 µM, an IC50 (SW1783) greater than 2.56 µM and an IC50 (DK-MG) greater than 2.56 µM. For the same compound, the IC50 (EW-18) was greater than 2.56 µM, the IC50 (MKN-45) was greater than 2.56 µM and the IC50 (786-0) was greater than 2.56 µM. The IC50 (MEG-01) was greater than 2.56 µM, the IC50 (ES8) was greater than 2.56 µM and the IC50 (U-266) was greater than 2.56 µM. For the same compound, the IC50 (EC-GI-10) was greater than 2.56 µM, the IC50 (COLO-800) was greater than 2.56 µM and the IC50 (EFM-19) was greater than 2.56 µM. The IC50 697 was greater than 2.56 µM, the IC50 (A673) was greater than 2.56 µM and the IC50 (YAPC) was greater than 2.56 µM. For the same compound, the IC50 (NY) was greater than 2.56 µM, the IC50 (SW780) was greater than 2.56 µM and the IC50 (D283 Med) was greater than 2.56 µM. The IC50 (SW982) was 0.214 µM, the IC50 (LCLC-97TM1) was greater than 2.56 µM and the IC50 (KYSE-520 cell line) was greater than 2.56 µM. The IC50 (HSC-3) was greater than 2.56 µM, the IC50 (TE-12) was greater than 2.56 µM and the IC50 (MKN-28) was greater than 2.56 µM. For the same compound, the IC50 (MCF7) was greater than 2.56 µM, the IC50 (OE19) was greater than 2.56 µM and the IC50 (PSN1) was greater than 2.56 µM. For the same compound, the IC50 (UMC-11) was greater than 2.56 µM, the IC50 (D-247MG) was 0.949 µM and the IC50 (SCC-25) was greater than 2.56 µM. The IC50 (J-RT3-T3-5) was greater than 2.56 µM, the IC50 (NCI-H2342) was greater than 2.56 µM and the IC50 (PANC-03-27) was greater than 2.56 µM. It also gave an IC50 (KM12) greater than 2.56 µM, an IC50 (KP-4) greater than 2.56 µM and an IC50 (BT-20) greater than 2.56 µM. The IC50 (Daoy) was greater than 2.56 µM, the IC50 (T84) was greater than 2.56 µM and the IC50 (NCI-H727) was greater than 2.56 µM.
